Experimental data: US12629341B2 (priority 2019, dated 2026)

Assays:
[1] = target: PrP^Sc (Mesocricetus auratus, UniProt P04273); design: species or system Syrian hamster; settings: Hyper-hamster PrPSc pellet
[2] = target: PrP^Sc (Mus musculus, UniProt P04925); settings: FVB-RML mouse PrPSc pellet
Chain of PrP^Sc (Mus musculus, UniProt P04925) (P04925 23-230 limits assumed): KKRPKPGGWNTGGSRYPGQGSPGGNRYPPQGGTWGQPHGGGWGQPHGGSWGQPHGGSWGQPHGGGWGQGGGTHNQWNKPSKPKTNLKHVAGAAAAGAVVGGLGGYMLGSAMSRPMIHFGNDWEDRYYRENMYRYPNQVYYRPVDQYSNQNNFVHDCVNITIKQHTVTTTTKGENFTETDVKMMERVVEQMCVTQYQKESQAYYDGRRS

Chain of PrP^Sc (Mesocricetus auratus, UniProt P04273) (P04273 23-231 limits assumed): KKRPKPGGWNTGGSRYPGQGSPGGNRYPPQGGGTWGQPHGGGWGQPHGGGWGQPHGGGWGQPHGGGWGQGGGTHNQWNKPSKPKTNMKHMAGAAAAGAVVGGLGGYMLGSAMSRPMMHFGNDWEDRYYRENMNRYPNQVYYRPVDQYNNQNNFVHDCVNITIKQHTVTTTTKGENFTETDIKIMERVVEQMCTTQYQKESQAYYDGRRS

CCCCCCCCCCCC(=O)N(C)CC(=O)[O-].[Na+] [Sarkosyl]
calculated amount of lipid: DG [1]: 0 | calculated amount of lipid: FA (free fatty acid) [1]: 0 | calculated amount of lipid: FC (free cholesterol) [1]: 24.35 | calculated amount of lipid: PC (phosphatidylcholine) [1]: 21.46 | calculated amount of lipid: PE (phosphatidylethanolamine) [1]: 8.57 | calculated amount of lipid: PI (phosphatidylinositol) [1]: 0 | calculated amount of lipid: PS (phosphatidylserine) [1]: 2.23 | calculated amount of lipid: SM (sphingomyelin) [1]: 3.12 | calculated amount of lipid: CE (cholesterol esters) [2]: 3.54 | calculated amount of lipid: DG [2]: 0 | calculated amount of lipid: FA (free fatty acid) [2]: 0 | calculated amount of lipid: FC (free cholesterol) [2]: 31.17 | calculated amount of lipid: PC (phosphatidylcholine) [2]: 16.80 | calculated amount of lipid: PE (phosphatidylethanolamine) [2]: 21.83 | calculated amount of lipid: PI (phosphatidylinositol) [2]: 1.92 | calculated amount of lipid: PS (phosphatidylserine) [2]: 8.05 | calculated amount of lipid: SM (sphingomyelin) [2]: 1.58 | calculated amount of lipid: TG (triglycerides) [2]: 4.29
